Measured values as given in patent publication US10609945B2, “Compositions comprising 2FL and LNnT to control food intake and growth in infants or young children” (NESTEC S.A., priority 2016, dated 2020).

Assay: Relative intake (total food intake/average body weight) of IUGR rats
Type: in vivo
Details: diet with 4.5 wt % HMO(s), vs IUGR rats control; for relative intake, period day 22-day 29: FIG. 4A/5A; for relative intake, period day 22-day 36: FIG. 4B/5B
Text: A wide group of pregnant female rats were bought from Charles River laboratories. Some of them were submitted to food restriction of 60% during the last 10 days of gestation. Immediately after birth (d=1), the born rat pups—subjects of the experiment—were split intoseveral groups: • Normal rats (reference): no IUGR (Intrauterine growth restriction) during their mothers' pregnancy (n=20). • IUGR rats (control): […] LNnT or 2FL+LNnT (in a weight ratio 2:1), see details below. All rat pups were fed from birth (d=1) up to 57 days (d=57) based on the following protocol: • day 1-day 6: all groups of rats were nursed by dam (mothers' milk only) • day 7-day 21: all rats were nursed by dam (mothers' milk only). […] To assess the efficiency of the feeding of these rats, especially tosee whether the feeding imply a healthy growth or not, several parameters were calculated, including: • the lean mass: it corresponds to the amount of weight in the body composition that is not fat. It was measured by magnetic resonance imaging. • the relative intake: it corresponds to the total food intake divided by the average body weight of a specified period. It was assessed for several periods during the entire experiment (so the total of food ingested was measured in continuous during several days to make the calculation). Significance was assessed using the […].

Compound: 2′-fucosyllactose [2FL]
- relative intake, period day 22-day 29: significantly increased
- relative intake, period day 22-day 36: significantly increased

Compound: CC(=O)N[C@H]1[C@H](O[C@H]2[C@@H](O)[C@@H](CO)O[C@@H](O[C@H]3[C@H](O)[C@@H](O)C(O)O[C@@H]3CO)[C@@H]2O)O[C@H](CO)[C@@H](O[C@@H]2O[C@H](CO)[C@H](O)[C@H](O)[C@H]2O)[C@@H]1O (mixture of isomers) [LNnT, lacto-N-neotetraose]
- relative intake, period day 22-day 29: significantly increased
- relative intake, period day 22-day 36: significantly increased
